{"source": "ChEMBL document CHEMBL4364247", "about": "“Development of potential preclinical candidates with promising in vitro ADME profile for the inhibition of type 1 and type 2 17β-Hydroxysteroid dehydrogenases: Design, synthesis, and biological evaluation” (Eur J Med Chem, 2019)", "key": {"[1]": {"target": "T1, 17-beta-hydroxysteroid dehydrogenase type 2 (Homo sapiens, UniProt P37059)", "T1 sequence (P37059 whole entry)": "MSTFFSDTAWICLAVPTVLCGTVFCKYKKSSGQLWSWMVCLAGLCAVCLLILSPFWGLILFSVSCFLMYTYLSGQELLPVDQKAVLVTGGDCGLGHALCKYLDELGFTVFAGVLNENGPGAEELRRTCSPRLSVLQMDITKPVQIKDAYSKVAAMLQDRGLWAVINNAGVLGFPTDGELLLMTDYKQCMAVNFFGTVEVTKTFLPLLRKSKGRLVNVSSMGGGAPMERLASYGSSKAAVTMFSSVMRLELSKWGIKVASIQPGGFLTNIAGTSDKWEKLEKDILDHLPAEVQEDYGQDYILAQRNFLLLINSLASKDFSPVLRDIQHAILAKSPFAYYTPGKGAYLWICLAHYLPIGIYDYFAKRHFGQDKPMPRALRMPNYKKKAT", "test": "Inhibition of human placental microsomal fraction 17beta-HSD2 using [3H]-E2 as substrate in presence of NAD+ by radio-HPLC analysis", "assay_type": "subcellular, Placenta"}, "[2]": {"target": "T2, 17-beta-hydroxysteroid dehydrogenase type 1 (Homo sapiens, UniProt P14061)", "T2 sequence (P14061 whole entry)": "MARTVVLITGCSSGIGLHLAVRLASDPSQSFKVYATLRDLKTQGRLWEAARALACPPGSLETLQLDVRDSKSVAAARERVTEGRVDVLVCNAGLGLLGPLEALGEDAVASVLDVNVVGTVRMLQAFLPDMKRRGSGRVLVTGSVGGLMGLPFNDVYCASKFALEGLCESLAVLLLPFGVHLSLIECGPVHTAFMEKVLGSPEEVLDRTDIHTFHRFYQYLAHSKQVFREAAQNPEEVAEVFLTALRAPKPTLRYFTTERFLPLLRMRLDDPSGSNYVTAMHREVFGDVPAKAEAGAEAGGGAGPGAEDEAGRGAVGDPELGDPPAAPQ", "test": "Inhibition of human placental cytosolic fraction 17beta-HSD1 using [3H]-E1 as substrate in presence of […] by radio-HPLC analysis"}, "[3]": {"test": "Aqueous solubility of the compound in phosphate-buffered saline at pH 7.2 after 1 to 24 hrs", "assay_type": "physicochemical"}, "[4]": {"target": "T3, 17-beta-hydroxysteroid dehydrogenase type 2 (Homo sapiens) (UniProt P37059)", "T3 sequence (whole entry)": "T1 sequence (P37059 whole entry)", "test": "Inhibition of human placental microsomal fraction 17beta-HSD2 at 10 nM using [3H]-E2 as substrate in presence of NAD+ by radio-HPLC analysis relative to control", "assay_type": "subcellular", "settings": "Placenta"}, "[5]": {"target": "T4, 17-beta-hydroxysteroid dehydrogenase type 1 (Homo sapiens) (UniProt P14061)", "T4 sequence (whole entry)": "T2 sequence (P14061 whole entry)", "settings": "10 nM", "description": "Inhibition of human placental cytosolic fraction 17beta-HSD1 at 10 nM using [3H]-E1 as substrate in presence of NAD+ by radio-HPLC analysis relative to control"}, "[6]": {"target": "T5, Estradiol 17-beta-dehydrogenase 2 (Mus musculus) (UniProt P51658)", "T5 sequence (whole entry)": "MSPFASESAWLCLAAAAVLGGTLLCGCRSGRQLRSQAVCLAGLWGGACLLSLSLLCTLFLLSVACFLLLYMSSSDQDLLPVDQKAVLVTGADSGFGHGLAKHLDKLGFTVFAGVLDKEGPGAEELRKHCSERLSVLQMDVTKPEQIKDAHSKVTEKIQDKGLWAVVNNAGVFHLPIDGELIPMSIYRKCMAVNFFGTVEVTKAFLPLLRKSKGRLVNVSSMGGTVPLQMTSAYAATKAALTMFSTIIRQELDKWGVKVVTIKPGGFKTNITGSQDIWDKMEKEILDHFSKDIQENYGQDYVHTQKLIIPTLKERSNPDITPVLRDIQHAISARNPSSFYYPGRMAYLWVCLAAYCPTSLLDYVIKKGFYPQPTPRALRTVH", "test": "Inhibition of mouse liver homogenate 17beta-HSD2 at 1uM using [3H]-E2 as substrate in presence of NAD+ by radio-HPLC analysis relative to control", "assay_type": "tissue-based"}, "[7]": {"target": "T6, Estradiol 17-beta-dehydrogenase 2 (Mus musculus, UniProt P51658)", "T6 sequence (P51658 whole entry)": "T5 sequence (whole entry)", "test": "Inhibition of mouse liver homogenate 17beta-HSD2 using [3H]-E2 as substrate in presence of NAD+ by radio-HPLC analysis", "assay_type": "tissue-based"}, "[8]": {"test": "Half life in human liver S9 fraction at 1 uM in presence of NADPH", "assay_type": "ADME, subcellular"}, "[9]": {"test": "Selectivity index, ratio of IC50 for mouse liver homogenate 17beta-HSD2 to IC50 for human placental cytosolic fraction 17beta-HSD1"}, "[10]": {"target": "T7, Steryl-sulfatase (Homo sapiens) (UniProt P08842)", "T7 sequence (whole entry)": "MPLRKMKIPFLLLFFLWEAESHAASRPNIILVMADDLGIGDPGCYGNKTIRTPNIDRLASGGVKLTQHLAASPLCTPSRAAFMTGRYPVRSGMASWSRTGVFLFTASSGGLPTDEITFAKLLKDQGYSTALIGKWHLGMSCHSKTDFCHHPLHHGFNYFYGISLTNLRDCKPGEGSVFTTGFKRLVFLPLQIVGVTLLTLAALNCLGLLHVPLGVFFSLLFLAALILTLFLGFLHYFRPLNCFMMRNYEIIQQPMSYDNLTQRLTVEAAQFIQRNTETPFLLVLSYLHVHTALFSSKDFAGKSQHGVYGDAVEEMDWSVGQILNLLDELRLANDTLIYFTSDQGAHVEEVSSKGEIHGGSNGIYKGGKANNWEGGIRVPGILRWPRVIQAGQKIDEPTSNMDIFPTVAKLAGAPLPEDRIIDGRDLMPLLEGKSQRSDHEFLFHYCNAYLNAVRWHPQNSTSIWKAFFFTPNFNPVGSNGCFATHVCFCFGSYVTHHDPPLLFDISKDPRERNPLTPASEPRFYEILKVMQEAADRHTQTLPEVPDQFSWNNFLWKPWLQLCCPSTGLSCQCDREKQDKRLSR", "test": "Inhibition of human steroid sulfatase expressed in T47D cells using [3H]-E1S as substrate by radio-HPLC analysis relative to control", "assay_type": "cell-based", "settings": "concentration not given here"}, "HEK293": {"tested_on": "HEK293", "test": "Cytotoxicity against human HEK293 cells assessed as cell viability at 6.3 uM after 66 hrs by MTT assay", "assay_type": "cell-based", "settings": "hek293, 66 h"}, "[11]": {"test": "Selectivity index, ratio of cytotoxicity against HEK293 cells to IC50 for human placental cytosolic fraction 17beta-HSD1"}}}
{"smiles": "CS(=O)(=O)n1cc(-c2ccc(C(=O)c3c(F)ccc(O)c3F)s2)cn1", "values": [{"measurement": "IC50", "setting": "[1]", "value": 75, "unit": "nM"}, {"measurement": "IC50", "setting": "[2]", "value": 80, "unit": "nM"}]}
{"smiles": "O=C(c1ccc(-c2cc(Cl)c(O)c(Cl)c2)s1)c1c(Cl)ccc(O)c1F", "values": [{"measurement": "IC50", "setting": "[1]", "value": 18, "unit": "nM"}, {"measurement": "IC50", "setting": "[2]", "value": 3, "unit": "nM"}]}
{"smiles": "O=C(c1ccc(-c2cccc(NS(=O)(=O)c3ccccc3OC(F)(F)F)c2)s1)c1cc(F)c(F)c(O)c1F", "values": [{"measurement": "solubility", "setting": "[3]", "value": "25 to 50", "unit": "µM"}]}
{"smiles": "NS(=O)(=O)c1cccc(-c2ccc(C(=O)c3c(F)ccc(O)c3F)s2)c1", "values": [{"measurement": "inhibition", "setting": "[4]", "value": 26, "unit": "%"}, {"measurement": "inhibition", "setting": "[5]", "value": 34, "unit": "%"}]}
{"smiles": "O=C(c1ccc(-c2cncc(F)c2)s1)c1cc(F)c(F)c(O)c1F", "values": [{"measurement": "solubility", "setting": "[3]", "value": "> 200", "unit": "µM"}, {"measurement": "inhibition", "setting": "[6]", "value": 24, "unit": "%"}]}
{"smiles": "NS(=O)(=O)Oc1ccc(-c2ccc(C(=O)c3cc(F)c(F)c(O)c3F)s2)cc1", "values": [{"measurement": "IC50", "setting": "[1]", "value": 6, "unit": "nM"}, {"measurement": "IC50", "setting": "[2]", "value": 35, "unit": "nM"}, {"measurement": "IC50", "setting": "[7]", "value": 80, "unit": "nM"}, {"measurement": "half-life at 1 µM", "setting": "[8]", "value": 55, "unit": "min"}, {"measurement": "solubility", "setting": "[3]", "value": "> 200", "unit": "µM"}, {"measurement": "Ratio IC50", "setting": "[9]", "value": "< 10"}, {"measurement": "inhibition", "setting": "[10]", "value": 60, "unit": "%"}]}
{"smiles": "Cc1cc(-c2ccc(C(=O)c3cc(F)cc(O)c3C)s2)cc(C)c1O", "values": [{"measurement": "IC50", "setting": "[1]", "value": 76, "unit": "nM"}, {"measurement": "IC50", "setting": "[2]", "value": 6, "unit": "nM"}, {"measurement": "Activity", "setting": "HEK293", "value": "Non-Toxic"}, {"measurement": "Selectivity Index", "setting": "[11]", "value": 1050}, {"measurement": "half-life at 1 µM", "setting": "[8]", "value": 22, "unit": "min"}, {"measurement": "solubility", "setting": "[3]", "value": "100 to 200", "unit": "µM"}]}
{"smiles": "Cc1cc(-c2ccc(C(=O)c3cc(F)c(F)c(O)c3C)s2)cc(C)c1O", "values": [{"measurement": "half-life at 1 µM", "setting": "[8]", "value": 28, "unit": "min"}, {"measurement": "solubility", "setting": "[3]", "value": "15 to 25", "unit": "µM"}]}
{"smiles": "CS(=O)(=O)c1cccc(-c2ccc(C(=O)c3cc(F)c(F)c(O)c3F)s2)c1", "values": [{"measurement": "IC50", "setting": "[1]", "value": 18, "unit": "nM"}, {"measurement": "IC50", "setting": "[2]", "value": 8, "unit": "nM"}, {"measurement": "solubility", "setting": "[3]", "value": "> 200", "unit": "µM"}, {"measurement": "inhibition", "setting": "[6]", "value": 60, "unit": "%"}]}
{"smiles": "COc1c(Cl)cc(-c2ccc(C(=O)c3c(F)ccc(O)c3F)s2)cc1Cl", "values": [{"measurement": "half-life at 1 µM", "setting": "[8]", "value": "< 5", "unit": "min"}, {"measurement": "solubility", "setting": "[3]", "value": "< 5", "unit": "µM"}]}
{"smiles": "NS(=O)(=O)c1ccc(-c2ccc(C(=O)c3c(F)ccc(O)c3F)s2)cc1", "values": [{"measurement": "inhibition", "setting": "[4]", "value": 54, "unit": "%"}, {"measurement": "inhibition", "setting": "[5]", "value": 18, "unit": "%"}]}
{"smiles": "COc1c(Cl)cc(-c2ccc(C(=O)c3c(Cl)ccc(O)c3F)s2)cc1Cl", "values": [{"measurement": "IC50", "setting": "[1]", "value": 15, "unit": "nM"}, {"measurement": "IC50", "setting": "[2]", "value": 0.5, "unit": "nM"}, {"measurement": "half-life at 1 µM", "setting": "[8]", "value": "< 5", "unit": "min"}]}
{"smiles": "Cc1cc(-c2ccc(C(=O)c3cccc(O)c3C)s2)cc(C)c1O", "values": [{"measurement": "half-life at 1 µM", "setting": "[8]", "value": 25, "unit": "min"}]}
{"smiles": "COc1c(Cl)cc(-c2ccc(C(=O)c3c(F)ccc(O)c3Cl)s2)cc1Cl", "values": [{"measurement": "IC50", "setting": "[1]", "value": 9.5, "unit": "nM"}, {"measurement": "IC50", "setting": "[2]", "value": 15, "unit": "nM"}]}
{"smiles": "Cc1cc(-c2ccc(C(=O)c3c(F)ccc(O)c3F)s2)cc(C)c1O", "values": [{"measurement": "IC50", "setting": "[1]", "value": 7.3, "unit": "nM"}, {"measurement": "half-life at 1 µM", "setting": "[8]", "value": "< 5", "unit": "min"}, {"measurement": "solubility", "setting": "[3]", "value": "15 to 25", "unit": "µM"}]}
